Source: the supplement of paper PMC10307832

Legend:
Test in all cases: relative viability (nuclei count vs DMSO), 5 days (fraction); higher = more cells survive
[1] = compound: Cn1cnc2c(F)c(Nc3ccc(Br)cc3Cl)c(C(=O)NOCCO)cc21 [Selumetinib] + CCNC(=O)c1noc(-c2cc(C(C)C)c(O)cc2O)c1-c1ccc(CN2CCOCC2)cc1 [Luminespib] (partner 0.01 µM)
Procedure, shortened: (§1)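 Relative viability divides the nuclei count in treated wells by that in vehicle wells. Lung cancer cell lines were seeded in 1536-well plates, dosed by pin tool the next day, and fixed and stained after 5 days in one step with final 0.05% Triton X-100, 1% formaldehyde and 1 ug/ml Hoechst. Dosing was a single drug or a fixed anchor-drug dose plus five library-drug doses (not always all listed) in √10 steps, and values are medians of duplicate plates imaged at 4×.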

[2] = compound: Cn1cnc2c(F)c(Nc3ccc(Br)cc3Cl)c(C(=O)NOCCO)cc21 [Selumetinib] + N=C(N)NC(=N)NCCc1ccccc1 [Phenformin] (partner 250 µM)
Procedure, shortened: as §1

[3] = compound: CC1(C)CCC(CN2CCN(c3ccc(C(=O)NS(=O)(=O)c4ccc(NCC5CCOCC5)c([N+](=O)[O-])c4)c(Oc4cnc5[nH]ccc5c4)c3)CC2)=C(c2ccc(Cl)cc2)C1 [Venetoclax] + CCNC(=O)c1noc(-c2cc(C(C)C)c(O)cc2O)c1-c1ccc(CN2CCOCC2)cc1 [Luminespib] (partner 0.01 µM)
Procedure, shortened: as §1

[4] = compound: CC1(C)CCC(CN2CCN(c3ccc(C(=O)NS(=O)(=O)c4ccc(NCC5CCOCC5)c([N+](=O)[O-])c4)c(Oc4cnc5[nH]ccc5c4)c3)CC2)=C(c2ccc(Cl)cc2)C1 [Venetoclax] + N=C(N)NC(=N)NCCc1ccccc1 [Phenformin] (partner 250 µM)
Procedure, shortened: as §1

For UMC-11, the relative viability ([1]; first compound 0.02 µM) was 1.14, the relative viability ([1]; first compound 0.06325 µM) was 0.869 and the relative viability ([1]; first compound 0.2 µM) was 1.08. It also gave a relative viability ([1]; first compound 0.6325 µM) of 0.967, a relative viability ([2]; first compound 0.02 µM) of 0.301 and a relative viability ([2]; first compound 0.06325 µM) of 0.284. It also gave a relative viability ([2]; first compound 0.2 µM) of 0.307, a relative viability ([2]; first compound 0.6325 µM) of 0.323 and a relative viability ([3]; first compound 0.01 µM) of 1.06. The relative viability ([3]; first compound 0.03162 µM) was 0.987, the relative viability ([3]; first compound 0.1 µM) was 1.04 and the relative viability ([3]; first compound 0.3162 µM) was 1.02. It also gave a relative viability ([3]; first compound 1 µM) of 0.882, a relative viability ([4]; first compound 0.01 µM) of 0.286 and a relative viability ([4]; first compound 0.03162 µM) of 0.319. It also gave a relative viability ([4]; first compound 0.1 µM) of 0.32, a relative viability ([4]; first compound 0.3162 µM) of 0.291 and a relative viability ([4]; first compound 1 µM) of 0.292.
